Laboratory results: the CheMixHub viscosity set

Assay: xn = mol fraction of the nth substance listed

CCCCNCCCC + CO
viscosity [mPa·s], 101 kPa
Settings | x2 = 0.0931 | x2 = 0.1959 | x2 = 0.2948 | x2 = 0.3963 | x2 = 0.4955 | x2 = 0.6075 | x2 = 0.7011 | x2 = 0.7979 | x2 = 0.9185
303.15 K | 0.745 | 0.725 | 0.706 | 0.689 | 0.663 | 0.639 | 0.609 | 0.579 | 0.548
313.15 K | 0.643 | 0.626 | 0.61 | 0.595 | 0.569 | 0.549 | 0.525 | 0.501 | 0.476
323.15 K | 0.543 | 0.528 | 0.513 | 0.498 | 0.483 | 0.467 | 0.452 | 0.435 | 0.413

COCCO + CCOC(=O)OCC
298.15 K, 101.33 kPa
Settings | viscosity [mPa·s]
x1 = 0.0272 | 0.752
x1 = 0.0413 | 0.754
x1 = 0.0549 | 0.755
x1 = 0.0747 | 0.755
x1 = 0.0907 | 0.759
x1 = 0.1297 | 0.765
x1 = 0.1593 | 0.772
x1 = 0.224 | 0.791
x1 = 0.2925 | 0.814
x1 = 0.3392 | 0.835
x1 = 0.4073 | 0.866
x1 = 0.4273 | 0.877
x1 = 0.456 | 0.892
x1 = 0.4715 | 0.902
x1 = 0.5283 | 0.939
x1 = 0.5966 | 0.99
x1 = 0.6278 | 1.015
x1 = 0.6808 | 1.062
x1 = 0.7227 | 1.106
x1 = 0.7552 | 1.142
x1 = 0.8011 | 1.197
x1 = 0.8428 | 1.253
x1 = 0.8647 | 1.285
x1 = 0.8826 | 1.313
x1 = 0.9127 | 1.359
x1 = 0.9464 | 1.418
x1 = 0.9674 | 1.455
x2 = 0.0047 | 1.512
x2 = 0.0149 | 1.491

C1CC[C@H]2CCCC[C@H]2C1 + CC1CCCCC1
viscosity [mPa·s], 100 kPa
Settings | x2 = 0.125 | x2 = 0.25 | x2 = 0.375 | x2 = 0.5 | x2 = 0.625 | x2 = 0.75 | x2 = 0.875
293.15 K | 2.749 | 2.287 | 1.867 | 1.541 | 1.3 | 1.076 | 0.894
303.15 K | 2.241 | 1.912 | 1.567 | 1.312 | 1.096 | 0.935 | 0.776
313.15 K | 1.858 | 1.6 | 1.326 | 1.123 | 0.944 | 0.824 | 0.674
323.15 K | 1.578 | 1.367 | 1.168 | 0.986 | 0.837 | 0.701 | 0.604

CC(=O)OC(C)C + Cc1cc(C)cc(C)c1
308.15 K, 101 kPa
Settings | viscosity [mPa·s]
x2 = 0.09942 | 0.4428
x2 = 0.197 | 0.4556
x2 = 0.3029 | 0.4738
x2 = 0.3917 | 0.4812
x2 = 0.4993 | 0.5032
x2 = 0.5992 | 0.5127
x2 = 0.6918 | 0.5289
x2 = 0.7944 | 0.539
x2 = 0.9024 | 0.5596
